Tests used:
[1] = system: HIV-1 (IIIB) in MT-4 cells; assay: MT-4 HIV assay; assay type: cell-based; conditions: Human immunodeficiency virus 1, MT4, 120 h; HIV-1 (IIIB), MT-4 cells, 5 days, Cell Titer Glo; read-out: EC50
Outline: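 MT-4 cells infected with HIV-1 IIIB (1:250 stock dilution) were incubated with 1:3 serially diluted compounds in RPMI with 10% FBS for 5 days at 37 °C. Cell Titer Glo luminescence was the readout. Plates included mock-infected wells, no-drug wells and 5 uM AZT controls.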

[2] = microsomes
Outline: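 Test compounds at 1 uM incubated in duplicate with dog, rat and human liver microsomes (0.5 mg/mL protein) plus NADPH-regenerating system; sampled at 2, 12, 25, 45 and 65 minutes. Parent remaining monitored by LC/MS/MS; Clint calculated from in vitro t1/2.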

[3] = 3H Human Predicted Clearance Assay (tritiated analogs); assay type: in vitro ADME; conditions: human, 1 uM
Protocol: 3H Human Predicted Clearance Assay:
For certain compounds, tritiated analogs (H^3) were prepared to further determined their human predicted clearance with increased resolution. Those studies were performed as described above using the tritiated analogs. Data from those compounds is found in Table 2 below and reported in FIG. 1 (note ATV and DRV were not tritiated).

in vivo = conditions: rat, in vivo; for Vd / RAT PO F: male, SD; for Vd / RAT IV CL / RAT IV T1/2: iv; for RAT PO F: 2.5 mg/kg
Protocol: Each dosing group consisted of 3 male naïve SD Rats. At dosing, the animals weighed between 0.27 to 0.32 kg. The animals were fasted overnight prior to dose administration. The test article was administered by intravenous infusion over 30 min. The rate of infusion was adjusted according to the body weight of each animal to deliver a dose of 0.5 or 1.0 mg/kg. For the oral dosing group, the test article was administered to animals by oral gavage administration. Serial venous blood samples (approximately 0.30 mL each) were taken at predose and 0.25, 0.48, 0.58, 0.75, 1.5, 3, 6, 8, 12 and 24 hours post dose for the IV dosing group animals. Blood samples were taken at predose, 0.25, 0.50, 1, 2, 4, 6, 8, 12 and 24 hours post dose for the oral group animals. The blood samples were collected into Vacutainer™ tubes containing EDTA-K2 as the anti-coagulant and were immediately placed on wet ice pending centrifugation for plasma. An LC/MS/MS method was used to measure the concentration of test compound in plasma. Non-compartmental pharmacokinetic analysis was performed on the plasma concentration-time data.

Compound	EC50 [1] [nM]	Human Pred Cl. [2] [L/H/kg]	Rat. Pred. Cl. [2] [L/H/kg]	3H Human Predicted Cl. [3]	Vd (in vivo) [L/kg]	RAT PO F (in vivo) [%]	RAT IV CL (in vivo) [mL/min/kg]	RAT IV T1/2 (in vivo) [h]	Dog. Pred. Cl. [2] [L/H/kg]
COC(=O)N[C@H](C(=O)N[C@@H](Cc1ccc(C#Cc2cnc(N3CC4CCC(C3)N4C3COC3)nc2)cc1)[C@@H](O)CN(Cc1c(F)cc(-c2ccn(CC(F)F)n2)cc1F)NC(=O)[C@@H](NC(=O)OC)C(C)(C)C(F)(F)F)C(C)(C)C(F)(F)F [Example 36, Methyl ((5S,8S,9S,14S)-11-(4-(1-(2,2-difluoroethyl)-1H-pyrazol-3-yl)-2,6-difluorobenzyl)-16,16,16-trifluoro-9-hydroxy-15,15-dimethyl-8-(4-((2-(8-(oxetan-3-yl)-3,8-diazabicyclo[3.2.1]octan-3-yl)pyrimidin-5-yl)ethynyl)benzyl)-3,6,13-trioxo-5-(1,1,1-trifluoro-2-methylpropan-2-yl)-2-oxa-4,7,11,12-tetraazahexadecan-14-yl)carbamate]	3.68	<0.11	0.27	0.1	5.99	16.4	5.33	15.7	–
COC(=O)N[C@H](C(=O)N[C@@H](Cc1ccc(C#Cc2ccc(N3CC4CCC(C3)N4C3COC3)nc2)cc1)[C@@H](O)CN(Cc1c(F)cc(-c2ccn(CC(F)F)n2)cc1F)NC(=O)[C@@H](NC(=O)OC)C(C)(C)C(F)(F)F)C(C)(C)C(F)(F)F [Example 46, Methyl ((5S,10S,11S,14S)-8-(4-(1-(2,2-difluoroethyl)-1H-pyrazol-3-yl)-2,6-difluorobenzyl)-16,16,16-trifluoro-10-hydroxy-15,15-dimethyl-11-(4-((6-(8-(oxetan-3-yl)-3,8-diazabicyclo[3.2.1]octan-3-yl)pyridin-3-yl)ethynyl)benzyl)-3,6,13-trioxo-5-(1,1,1-trifluoro-2-methylpropan-2-yl)-2-oxa-4,7,8,12-tetraazahexadecan-14-yl)carbamate]	4.34	<0.11	0.19	0.04	4.22	13	7.5	9.22	1.64
COC(=O)N[C@H](C(=O)NN(Cc1c(F)cc(-c2ccn(C(F)F)n2)cc1F)C[C@H](O)[C@H](Cc1ccc(C#Cc2ccc(N3CC4CCC(C3)N4C3COC3)nc2)cc1)NC(=O)[C@@H](NC(=O)OC)C(C)(C)C(F)(F)F)C(C)(C)C [Example 73, Methyl ((5S,8S,9S,14S)-11-(4-(1-(difluoromethyl)-1H-pyrazol-3-yl)-2,6-difluorobenzyl)-9-hydroxy-15,15-dimethyl-8-(4-((6-(8-(oxetan-3-yl)-3,8-diazabicyclo[3.2.1]octan-3-yl)pyridin-3-yl)ethynyl)benzyl)-3,6,13-trioxo-5-(1,1,1-trifluoro-2-methylpropan-2-yl)-2-oxa-4,7,11,12-tetraazahexadecan-14-yl)carbamate]	4.72	0.13	<0.18	0.09	3.34	35	5.33	9.43	–
COC(=O)N[C@H](C(=O)N[C@@H](Cc1ccc(C#Cc2cnc(N3CC4CCC(C3)N4C3COC3)nc2)cc1)[C@@H](O)CN(Cc1c(F)cc(-c2ncccn2)cc1F)NC(=O)[C@@H](NC(=O)OC)C(C)(C)C(F)(F)F)C(C)(C)C(F)(F)F [Example 89, Methyl ((5S,8S,9S,14S)-11-(2,6-difluoro-4-(pyrimidin-2-yl)benzyl)-16,16,16-trifluoro-9-hydroxy-15,15-dimethyl-8-(4-((2-(8-(oxetan-3-yl)-3,8-diazabicyclo[3.2.1]octan-3-yl)pyrimidin-5-yl)ethynyl)benzyl)-3,6,13-trioxo-5-(1,1,1-trifluoro-2-methylpropan-2-yl)-2-oxa-4,7,11,12-tetraazahexadecan-14-yl)carbamate]	3.32	<0.11	<0.18	0.08	3.53	44.2	5	10.2	1.67
COC(=O)N[C@H](C(=O)N[C@@H](Cc1ccc(C#Cc2ccc(N3CC4CCC(C3)N4C3COC3)nc2)cc1)[C@@H](O)CN(Cc1c(F)cc(-c2ncccn2)cc1F)NC(=O)[C@@H](NC(=O)OC)C(C)(C)C(F)(F)F)C(C)(C)C(F)(F)F [Example 101, Methyl ((5S,8S,9S,14S)-11-(2,6-difluoro-4-(pyrimidin-2-yl)benzyl)-16,16,16-trifluoro-9-hydroxy-15,15-dimethyl-8-(4-((6-(8-(oxetan-3-yl)-3,8-diazabicyclo [3.2.1]octan-3-yl)pyridin-3-yl)ethynyl)benzyl)-3,6,13-trioxo-5-(1,1,1-trifluoro-2-methylpropan-2-yl)-2-oxa-4,7,11,12-tetraazahexadecan-14-yl)carbamate]	4.22	<0.11	<0.18	0.08	6.07	38.4	8	10	–
COC(=O)N[C@H](C(=O)N[C@@H](Cc1ccc(-c2cnc(N3CC4CCC(C3)N4C3COC3)nc2)cc1)[C@@H](O)CN(Cc1c(F)cc(-c2ccn(C(F)F)n2)cc1F)NC(=O)[C@@H](NC(=O)OC)C(C)(C)C(F)(F)F)C(C)(C)C(F)(F)F [Example 199, Methyl ((5S,8S,9S,14S)-11-(4-(1-(difluoromethyl)-1H-pyrazol-3-yl)-2,6-difluorobenzyl)-16,16,16-trifluoro-9-hydroxy-15,15-dimethyl-8-(4-(2-(8-(oxetan-3-yl)-3,8-diazabicyclo[3.2.1]octan-3-yl)pyrimidin-5-yl)benzyl)-3,6,13-trioxo-5-(1,1,1-trifluoro-2-methylpropan-2-yl)-2-oxa-4,7,11,12-tetraazahexadecan-14-yl)carbamate]	2.72	<0.11	0.48	0.15	1.07	14.7	7.67	2.09	0.91
COC(=O)N[C@H](C(=O)N[C@@H](Cc1ccc(C#Cc2ccc(N3CC4CCC(C3)N4C3COC3)nc2)cc1)[C@@H](O)CN(Cc1c(F)cc(-c2cc(F)ccn2)cc1F)NC(=O)[C@@H](NC(=O)OC)C(C)(C)C(F)(F)F)C(C)(C)C(F)(F)F [Example 239, methyl ((5S,8S,9S,14S)-11-(2,6-difluoro-4-(4-fluoropyridin-2-yl)benzyl)-16,16,16-trifluoro-9-hydroxy-15,15-dimethyl-8-(4-((6-(8-(oxetan-3-yl)-3,8-diazabicyclo[3.2.1]octan-3-yl)pyridin-3-yl)ethynyl)benzyl)-3,6,13-trioxo-5-(1,1,1-trifluoro-2-methylpropan-2-yl)-2-oxa-4,7,11,12-tetraazahexadecan-14-yl)carbamate]	4.45	<0.11	<0.18	0.13	5.49	26.3	6.7	12.9	–

From US10294234B2, “HIV inhibitor compounds” (priority 2017, dated 2019)
